Reference: patent US10294202B2, “Pyrrolidinones as herbicides” (FMC Corporation, priority 2013, dated 2019)

Experiments:
[1] = test system: johnsongrass; experiment: Test E preemergence herbicide test; assay type: in vivo, Sorghum halepense; parameters: key: 0 = no effect, 100 = complete control
Description: Seeds of plant species selected from corn (Zea mays), soybean (Glycine max), velvetleaf (Abutilon theophrasti), lambsquarters (Chenopodium album), wild poinsettia (Euphorbia heterophylla), pigweed, palmer (palmer pigweed, Amaranthus palmeri), waterhemp (common waterhemp, Amaranthus rudis), surinam grass (Brachiaria decumbens), crabgrass, large (large crabgrass, Digitaria sanguinalis), crabgrass, Brazil (Brazilian crabgrass, Digitaria horizontalis), panicum, fall (fall panicum, Panicum dichotomiflorum), foxtail, giant (giant foxtail, Setaria faberii), foxtail, green (green foxtail, Setaria viridis), goosegrass (Eleusine indica), johnsongrass (Sorghum halepense), ragweed (common ragweed, Ambrosia elatior), barnyardgrass (Echinochloa crus-galli), sandbur (southern sandbur, Cenchrus echinatus), arrowleaf […] rhombifolia), ryegrass, Italian (Italian ryegrass, Lolium multiflorum), dayflower, VA (Virginia dayflower, Commelina virginica), field bindweed (Convolvulus arvensis), morningglory (Ipomoea coccinea), nightshade (eastern black nightshade, Solanum ptycanthum), kochia (Kochia scoparia), nutsedge, yellow (yellow nutsedge, Cyperus esculentus), cocklebur (common cocklebur, Xanthium strumarium), smartweed (ladysthumb smartweed, Polygonum Persicaria) and beggarticks (hairy beggarticks, Bidens pilosa), were planted into a silt loam soil and treated preemergence with test chemicals formulated in a non-phytotoxic solvent mixture which included a surfactant. Treated plants and controls were maintained in a greenhouse for 21 days, after which time all species were compared to controls and visually evaluated. Plant response ratings, summarized in Table E, are based on a scale of 0 to 100 where 0 is no effect and 100 is complete control. A dash (-) response means no test result.

[2] = test system: radish, wild; experiment: Test D pre-/postemergence herbicide test; assay type: in vivo, Raphanus raphanistrum; settings: for Plant response rating: Postemergence, Radish, Wild, scale 0 to 100; for Plant response rating, Radish, Wild: Preemergence, scale 0 to 100 (0 no effect, 100 complete control)
Procedure, shortened: (§1)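 Plants were maintained 7 to 21 days in a controlled environment after treatment and then scored visually against controls (0 no effect, 100 complete control). Seeds in silt loam received preemergence sprays, and 1- to 4-leaf plants received postemergence sprays, both formulated in non-phytotoxic solvent with surfactant.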

[3] = test system: blackgrass; experiment: Test D pre-/postemergence herbicide test; assay type: in vivo, Alopecurus myosuroides; settings: for Plant response rating: Blackgrass, scale 0 to 100; for Plant response rating, Blackgrass: scale 0 to 100 (0 no effect, 100 complete control)
Description: (§2) Seeds of plant species selected from bluegrass (annual bluegrass, Poa annua), blackgrass (Alopecurus myosuroides), canarygrass (littleseed canarygrass, Phalaris minor), chickweed (common chickweed, Stellaria media), galium (catchweed bedstraw, Galium aparine), bromegrass, downy (downy bromegrass, Bromus tectorum), field poppy (Papaver rhoeas), field violet (Viola arvensis), foxtail, green (green foxtail, Setaria viridis), deadnettle (henbit deadnettle, Lamium amplexicaule), ryegrass, Italian (Italian ryegrass, Lolium multiflorum), kochia (Kochia scoparia), lambsquarters (Chenopodium album), oilseed rape (Brassica napus), pigweed (Amaranthus retroflexus), chamomile (scentless chamomile, Matricaria inodora), Russian thistle (Salsola kali), speedwell (bird's-eye speedwell, Veronica persica), barley, spring (spring barley, Hordeum vulgare), wheat, spring (spring wheat, Triticum aestivum), buckwheat, wild (wild buckwheat, Polygonum convolvulus), mustard, wild (wild mustard, Sinapis arvensis), oat, wild (wild oat, Avena fatua), radish, wild (wild radish, Raphanus raphanistrum), […]), barley, winter (winter barley, Hordeum vulgare), and wheat, winter (winter wheat, Triticum aestivum) were planted into a silt loam soil and treated preemergence with test chemicals formulated in a non-phytotoxic solvent mixture which included a surfactant. At the same time, these species were planted in pots containing Redi-Earth® planting medium (Scotts Company, 14111 Scottslawn Road, Marysville, Ohio 43041) comprising spaghnum peat moss, vermiculite, wetting agent and starter nutrients and treated with postemergence applications of the test chemicals formulated in the same manner. Plants ranged in height from 2 to 18 cm (1- to 4-leaf stage). Treated plants and controls were maintained in a controlled growth environment for 7 to 21 days after which time all species were compared to controls and visually evaluated. Plant response ratings, summarized in Table D, are based on a scale of 0 to 100 where 0 is no effect and 100 is complete control. A dash (-) response means no test result.

[4] = test system: bromegrass, downy; experiment: Test D pre-/postemergence herbicide test; assay type: in vivo, Bromus tectorum; settings: for Plant response rating: Bromegrass, Downy, scale 0 to 100; for Plant response rating, Bromegrass, Downy: scale 0 to 100 (0 no effect, 100 complete control)
Procedure, shortened: as §1

[5] = test system: field violet; experiment: Test D pre-/postemergence herbicide test; assay type: in vivo, Viola arvensis; settings: for Plant response rating: Field Violet, scale 0 to 100; for Plant response rating, Field Violet: scale 0 to 100 (0 no effect, 100 complete control)
Procedure, shortened: as §1

[6] = test system: wheat, spring; experiment: Test D pre-/postemergence herbicide test; assay type: in vivo, Triticum aestivum; settings: for Plant response rating: Postemergence, Wheat, Spring, scale 0 to 100; for Plant response rating, Wheat, Spring: Preemergence, scale 0 to 100 (0 no effect, 100 complete control)
Description: as §2

[7] = test system: wheat, winter; experiment: Test D pre-/postemergence herbicide test; assay type: in vivo, Triticum aestivum; settings: for Plant response rating: Postemergence, Wheat, Winter, scale 0 to 100; for Plant response rating, Wheat, Winter: Preemergence, scale 0 to 100 (0 no effect, 100 complete control)
Description: as §2

[8] = test system: ryegrass, Italian; experiment: Test D pre-/postemergence herbicide test; assay type: in vivo, Lolium multiflorum; settings: for Plant response rating: Postemergence, Ryegrass, Italian, scale 0 to 100; for Plant response rating, Ryegrass, Italian: Preemergence, scale 0 to 100 (0 no effect, 100 complete control)
Description: as §2

O=C1NCC(c2ccc(OC(F)F)cc2)C1C(=O)Nc1cccc(F)c1F (racemic) [Compound 350]
Plant response rating, Johnsongrass ([1]; 31 g ai/ha): 0 | Plant response rating, Johnsongrass ([1]; 62 g ai/ha): 0 | Plant response rating, Johnsongrass ([1]; 125 g ai/ha): 0 | Plant response rating, Johnsongrass ([1]; 250 g ai/ha): 0

O=C1NCC(c2ccc(Cl)c(Cl)c2)C1C(=O)Nc1ccccc1F (racemic) [Compound 14]
Plant response rating, Johnsongrass ([1]; 16 g ai/ha): 0 | Plant response rating, Johnsongrass ([1]; 31 g ai/ha): 0 | Plant response rating, Johnsongrass ([1]; 62 g ai/ha): 0 | Plant response rating, Johnsongrass ([1]; 125 g ai/ha): 0 | Plant response rating, Johnsongrass ([1]; 250 g ai/ha): 0

O=C1NCC(c2cc(F)c(F)cc2F)C1C(=O)Nc1cccc(F)c1F (centres unmarked) [Compound 50]
Plant response rating ([2]; 16 g ai/ha): 0 | Plant response rating ([2]; 31 g ai/ha): 0 | Plant response rating ([2]; 62 g ai/ha): 0 | Plant response rating ([2]; 125 g ai/ha): 0 | Plant response rating, Radish, Wild ([2]; 62 g ai/ha): 0 | Plant response rating, Radish, Wild ([2]; 16 g ai/ha): 0 | Plant response rating ([3]; Postemergence, 16 g ai/ha): 0 | Plant response rating ([3]; Postemergence, 31 g ai/ha): 0 | Plant response rating ([3]; Postemergence, 62 g ai/ha): 0 | Plant response rating ([3]; Postemergence, 125 g ai/ha): 0 | Plant response rating, Blackgrass ([3]; Preemergence, 62 g ai/ha): 0 | Plant response rating, Blackgrass ([3]; Preemergence, 16 g ai/ha): 0 | Plant response rating, Blackgrass ([3]; Preemergence, 31 g ai/ha): 0 | Plant response rating ([3]; Preemergence, 125 g ai/ha): 0 | Plant response rating ([4]; Postemergence, 16 g ai/ha): 0 | Plant response rating ([4]; Postemergence, 31 g ai/ha): 0 | Plant response rating ([4]; Postemergence, 62 g ai/ha): 0 | Plant response rating ([4]; Postemergence, 125 g ai/ha): 0 | Plant response rating, Bromegrass, Downy ([4]; Preemergence, 62 g ai/ha): 0 | Plant response rating, Bromegrass, Downy ([4]; Preemergence, 16 g ai/ha): 0 | Plant response rating, Bromegrass, Downy ([4]; Preemergence, 31 g ai/ha): 0 | Plant response rating ([4]; Preemergence, 125 g ai/ha): 0 | Plant response rating ([5]; Postemergence, 16 g ai/ha): 0 | Plant response rating ([5]; Postemergence, 31 g ai/ha): 0 | Plant response rating ([5]; Postemergence, 62 g ai/ha): 0 | Plant response rating ([5]; Postemergence, 125 g ai/ha): 0 | Plant response rating, Field Violet ([5]; Preemergence, 62 g ai/ha): 0 | Plant response rating, Field Violet ([5]; Preemergence, 16 g ai/ha): 0 | Plant response rating, Field Violet ([5]; Preemergence, 31 g ai/ha): 0 | Plant response rating ([5]; Preemergence, 125 g ai/ha): 0 | Plant response rating ([6]; 16 g ai/ha): 0 | Plant response rating ([6]; 31 g ai/ha): 0 | Plant response rating ([6]; 62 g ai/ha): 0 | Plant response rating ([6]; 125 g ai/ha): 0 | Plant response rating, Wheat, Spring ([6]; 62 g ai/ha): 0 | Plant response rating, Wheat, Spring ([6]; 125 g ai/ha): 0 | Plant response rating, Wheat, Spring ([6]; 16 g ai/ha): 0 | Plant response rating, Wheat, Spring ([6]; 31 g ai/ha): 0 | Plant response rating ([7]; 16 g ai/ha): 0 | Plant response rating ([7]; 31 g ai/ha): 0 | Plant response rating ([7]; 62 g ai/ha): 0 | Plant response rating ([7]; 125 g ai/ha): 0 | Plant response rating, Wheat, Winter ([7]; 62 g ai/ha): 0 | Plant response rating, Wheat, Winter ([7]; 125 g ai/ha): 0 | Plant response rating, Wheat, Winter ([7]; 16 g ai/ha): 0 | Plant response rating, Wheat, Winter ([7]; 31 g ai/ha): 0 | Plant response rating ([8]; 16 g ai/ha): 0 | Plant response rating ([8]; 31 g ai/ha): 0 | Plant response rating ([8]; 62 g ai/ha): 0 | Plant response rating ([8]; 125 g ai/ha): 0 | Plant response rating, Ryegrass, Italian ([8]; 62 g ai/ha): 0 | Plant response rating, Ryegrass, Italian ([8]; 125 g ai/ha): 0 | Plant response rating, Ryegrass, Italian ([8]; 16 g ai/ha): 0 | Plant response rating, Ryegrass, Italian ([8]; 31 g ai/ha): 0

O=C1NCC(c2ccc(Cl)c(F)c2)C1C(=O)Nc1cccc(F)c1F (centres unmarked) [Compound 52]
Plant response rating, Radish, Wild ([2]; 16 g ai/ha): 0 | Plant response rating ([3]; Postemergence, 16 g ai/ha): 0 | Plant response rating ([3]; Postemergence, 31 g ai/ha): 0 | Plant response rating ([3]; Postemergence, 62 g ai/ha): 0 | Plant response rating ([3]; Postemergence, 125 g ai/ha): 0 | Plant response rating ([3]; Postemergence, 250 g ai/ha): 0 | Plant response rating, Blackgrass ([3]; Preemergence, 62 g ai/ha): 0 | Plant response rating, Blackgrass ([3]; Preemergence, 16 g ai/ha): 0 | Plant response rating, Blackgrass ([3]; Preemergence, 31 g ai/ha): 0 | Plant response rating ([3]; Preemergence, 125 g ai/ha): 0 | Plant response rating ([3]; Preemergence, 250 g ai/ha): 0 | Plant response rating ([4]; Postemergence, 16 g ai/ha): 0 | Plant response rating ([4]; Postemergence, 31 g ai/ha): 0 | Plant response rating ([4]; Postemergence, 62 g ai/ha): 0 | Plant response rating ([4]; Postemergence, 125 g ai/ha): 0 | Plant response rating ([4]; Postemergence, 250 g ai/ha): 0 | Plant response rating, Bromegrass, Downy ([4]; Preemergence, 62 g ai/ha): 0 | Plant response rating, Bromegrass, Downy ([4]; Preemergence, 16 g ai/ha): 0 | Plant response rating, Bromegrass, Downy ([4]; Preemergence, 31 g ai/ha): 0 | Plant response rating ([4]; Preemergence, 125 g ai/ha): 0 | Plant response rating ([4]; Preemergence, 250 g ai/ha): 0 | Plant response rating ([5]; Postemergence, 16 g ai/ha): 0 | Plant response rating ([5]; Postemergence, 31 g ai/ha): 0 | Plant response rating ([5]; Postemergence, 62 g ai/ha): 0 | Plant response rating ([5]; Postemergence, 125 g ai/ha): 0 | Plant response rating ([5]; Postemergence, 250 g ai/ha): 0 | Plant response rating ([6]; 16 g ai/ha): 0 | Plant response rating ([6]; 31 g ai/ha): 0 | Plant response rating ([6]; 62 g ai/ha): 0 | Plant response rating ([6]; 125 g ai/ha): 0 | Plant response rating ([6]; 250 g ai/ha): 0 | Plant response rating, Wheat, Spring ([6]; 62 g ai/ha): 0 | Plant response rating, Wheat, Spring ([6]; 125 g ai/ha): 0 | Plant response rating, Wheat, Spring ([6]; 16 g ai/ha): 0 | Plant response rating, Wheat, Spring ([6]; 31 g ai/ha): 0 | Plant response rating, Wheat, Spring ([6]; 250 g ai/ha): 0 | Plant response rating ([7]; 16 g ai/ha): 0 | Plant response rating ([7]; 31 g ai/ha): 0 | Plant response rating ([7]; 62 g ai/ha): 0 | Plant response rating ([7]; 125 g ai/ha): 0 | Plant response rating ([7]; 250 g ai/ha): 0 | Plant response rating, Wheat, Winter ([7]; 62 g ai/ha): 0 | Plant response rating, Wheat, Winter ([7]; 125 g ai/ha): 0 | Plant response rating, Wheat, Winter ([7]; 16 g ai/ha): 0 | Plant response rating, Wheat, Winter ([7]; 31 g ai/ha): 0 | Plant response rating, Wheat, Winter ([7]; 250 g ai/ha): 10 | Plant response rating ([8]; 16 g ai/ha): 0 | Plant response rating ([8]; 31 g ai/ha): 0 | Plant response rating ([8]; 62 g ai/ha): 0 | Plant response rating ([8]; 125 g ai/ha): 0 | Plant response rating ([8]; 250 g ai/ha): 0 | Plant response rating, Ryegrass, Italian ([8]; 62 g ai/ha): 0 | Plant response rating, Ryegrass, Italian ([8]; 125 g ai/ha): 0 | Plant response rating, Ryegrass, Italian ([8]; 16 g ai/ha): 40 | Plant response rating, Ryegrass, Italian ([8]; 31 g ai/ha): 0 | Plant response rating, Ryegrass, Italian ([8]; 250 g ai/ha): 0
